In paper PMC5874716, “Antimicrobial Peptides for Topical Treatment of Osteomyelitis and Implant-Related Infections: Study in the Spongy Bone” (Pharmaceuticals, 2018):
Structures can show the parent of a compound that is named as a salt. Non-standard residues stand in square brackets, D forms with d. Residues, ends and D or L forms follow the SMILES beside them. βAla = NCCC(=O)O

Legend:
E. faecalis = assay: Biofilm formation on bone cement (Palacos r) model implants in infected femur head; parameters: species or system Enterococcus faecalis; conditions: cements implanted inside infected holes; 2 days; single experiment
Text: (§1) The poly(methyl methacrylate)-based bone cement with or without AMPs was implanted either inside infected holes or inside non-infected holes. In the latter case, the microbes infiltrated towards the implant from a hole made between them at roughly equal distance from each (Figure 3). This would simulate the authentic situation in which the pathogens can infect an orthopaedic implant by spreading through the bloodstream or contiguously from areas of infection. We evaluated the experiments on the basis of the amounts of microbes released from the biofilms supposedly formed on the surfaces of the implants that were removed from the infected bone samples.
(§2) The bone samples with bored holes inside were prepared and handled as above. The bone cement (Palacos®r, Hereaus Medical GmbH, Wehrheim, Germany) with AMP incorporated was prepared by swift and thorough mixing of the polymer powder component (poly-methylacrylate, methyl methacrylate, 125 mg) and AMP (10 mg) or antibiotic (10 mg) with the liquid monomer (methyl methacrylate, N,N-dimethyl-p-toluidine, hydroquinone and colorant E141, 70 μL). The resulting elastic paste was pressed using a 2 mL plastic syringe into two bored holes, where it polymerized and solidified. The paste without peptide for filling of the remaining two holes was prepared similarly by mixing the powder component (125 mg) and liquid component (68 μL). […]

[1] = tested on: MRSA clinical isolate from Liberec Regional Hospital (MRSA (L)); assay: microbe, parasite or virus in culture; assay type: cell-based
Description: (§3) Femur heads (ca. 70 pieces) taken from patients during hip replacement surgery were periodically purchased in the period between 2014–2017 as discarded from the bone tissue bank at University Hospital in Motol, Prague, Czech Republic. The reason for the replacements by artificial prosthesis was the worn out cartilage on the surface of their heads. Bone samples were stored at −80 °C under standard conditions of certified tissue banks. In the laboratory, they were kept at +5 °C overnight and then at room temperature for several hours before they could be used for the experiments. The experiments with this material were approved by the Ethics Committee for Multi-Centric Clinical Trials of the University Hospital Motol, Reference No: EK-655/15. Methicillin-resistant S. aureus (MRSA 6271) ATCC 43300 and P. aeruginosa (5482) ATCC 27853 were purchased from the Czech National Collection of Type Cultures, National Institute of Public Health, Prague, Czech Republic. Methicillin-resistant S. aureus (MRSA (L)) and P. aeruginosa (L) were obtained as multi-resistant clinical isolates from Liberec Regional Hospital, Liberec, Czech Republic. Methicillin-resistant S. aureus (MRSA (M)), E. faecalis and S. epidermidis were obtained as clinical isolates from University Hospital in Motol, Prague. Candida albicans (F7-39/IDE99) came from the mycological collection of the Faculty of Medicine, Palacky University, Olomouc, Czech Republic. C. albicans ATCC MYA-2876, C. tropicalis ATCC 750 and C. glabrata DSY565 were kindly provided by Dr. Hana Sychrová from the Institute of Physiology, Academy of Sciences of the Czech Republic, Prague. Vancomycin hydrochloride, gentamicin sulfate, ceftriaxone disodium salt, amphotericin B, fluconazole, and clotrimazole were obtained from Sigma-Aldrich, Prague, Czech Republic.
(§4) MIC values for peptides were established by observing growth of treated bacteria in HONEYCOMB 100-well microtiter plates (Helsinki, Finland) using a Bioscreen C instrument (Oy Growth Curves, Helsinki, Finland) as previously described. Haemolytic activity of peptides expressed as the concentration of a peptide required for lysis of 50% of human erythrocytes in the assay (LC50) was measured using a Tecan infinite M200 PRO reader (Tecan Austria GmbH, Grödig, Austria). Blood samples for determining haemolytic activity were obtained from healthy volunteers.

[2] = tested on: E. faecalis clinical isolate (Motol); assay: microbe, parasite or virus in culture; assay type: cell-based
Description: as §3, §4

MRSA 6271 (ATCC 43300) = assay: microbe, parasite or virus in culture; assay type: cell-based
Description: as §3, §4

[3] = tested on: P. aeruginosa clinical isolate from Liberec Regional Hospital; assay: microbe, parasite or virus in culture; assay type: cell-based
Description: as §3, §4

[4] = tested on: P. aeruginosa (5482) ATCC 27853; assay: microbe, parasite or virus in culture; assay type: cell-based
Description: as §3, §4

[5] = tested on: MRSA clinical isolate from University Hospital in Motol (MRSA (M)); assay: microbe, parasite or virus in culture; assay type: cell-based
Description: as §3, §4

[6] = tested on: S. epidermidis clinical isolate (Motol); assay: microbe, parasite or virus in culture; assay type: cell-based
Description: as §3, §4

[7] = tested on: MRSA clinical isolate from University Hospital in Motol (MRSA (M)); assay: Biofilm formation on bone cement (Palacos r) model implants in infected femur head; parameters: species or system Staphylococcus aureus; conditions: cements implanted inside infected holes; Palacos r with peptide or antibiotic; 2 days; single experiment, / = two implants
Text: as §1, §2

human erythrocytes = assay: Haemolysis assay; assay type: cell-based; conditions: concentration causing lysis of 50% of human red blood cells; at least three times in duplicates
Description: as §4

P. aeruginosa 5482 = assay: Experimental model of bone infection (human femur head, ChronOS Inject carrier); parameters: species or system Pseudomonas aeruginosa; conditions: ChronOS Inject 200 mg blended with 10 mg peptide; 2 days at room temperature; single experiment on one femoral head
Description: We usually drilled three to four holes into the spongy part of each bone sample (as space allowed) and then filled the holes with the suspension of microbes (Figure 1a). The next day, the foci of the infection set up in the holes were treated (i) with carrier alone as a control, (ii) with carrier blended with AMP, or (iii) in some cases with a carrier blended with an antibiotic for comparison (Figure 1b). The results of infection eradication were evaluated after two days by counting the bacterial colonies (Figures S1–S3 as illustrative examples) found in the swab taken from each hole after the fillings were removed (Figure 1c).
Three to four holes ca 4 mm in diameter and 8 mm deep were drilled using a surgical spoon at the side of the resection into the spongy part of the femur head. This bone was placed into a beaker cushioned with sterile gauze, which was then drenched with sterile physiological solution. The suspension of selected bacteria (S. aureus, S. epidermidis, P. aeruginosa) in the concentration of 10^9 colony forming units (CFU)/mL in Luria Bertani (LB) medium and E. faecalis in brain-heart infusion (BHI) medium was consecutively infused into each hole in the bone while taking care not to overfill the holes (Figure 1a). […] Following overnight incubation, the numbers of bacterial colonies were counted. The bacterial load was expressed as CFU per hole. […]

Candida albicans = assay type: cell-based; conditions: Bioscreen C; at least three times in duplicates
Description: as §3, §4

C. tropicalis ATCC 750 = assay: Biofilm formation on bone cement (Palacos r) model implants in infected femur head; parameters: species or system Candida tropicalis; conditions: cements implanted inside infected holes; 2 days; single experiment, / = two implants
Text: as §1, §2

[8] = clinical isolate Liberec, Bioscreen C, at least three times in duplicates
[9] = clinical isolate Motol, Bioscreen C, at least three times in duplicates

In the case of `CN[C@H](CC(C)C)C(=O)N[C@H]1C(=O)N[C@@H](CC(N)=O)C(=O)N[C@H]2C(=O)N[C@H]3C(=O)N[C@H](C(=O)N[C@H](C(=O)O)c4cc(O)cc(O)c4-c4cc3ccc4O)[C@H](O)c3ccc(c(Cl)c3)Oc3cc2cc(c3O[C@@H]2O[C@H](CO)[C@@H](O)[C@H](O)[C@H]2O[C@H]2C[C@](C)(N)[C@H](O)[C@H](C)O2)Oc2ccc(cc2Cl)[C@H]1O` [Vancomycin, Vancomycin hydrochloride, reference compound], the “CFU/Implant, *E. f.” value (E. faecalis) is reported as 4.0 × 10^6 CFU/implant, the MIC ([1]; Staphylococcus aureus, MRSA, read-out: Antimicrobial Activity MIC, MRSA a) is reported as 1.1 µM and the MIC ([2]; Enterococcus faecalis, read-out: Antimicrobial Activity MIC, E. f. b) is reported as 1.3 µM. The MIC (MRSA 6271 (ATCC 43300); Staphylococcus aureus, read-out: Antimicrobial Activity MIC, MRSA 6271) was 0.9 µM, the MIC ([3]; Pseudomonas aeruginosa, read-out: Antimicrobial Activity MIC, P. a. a) was > 320 µM and the MIC ([4]; Pseudomonas aeruginosa, ATCC27853, read-out: Antimicrobial Activity MIC, P. a. 5482) was > 200 µM. For the same compound, the MIC ([5]; Staphylococcus aureus, MRSA, read-out: Antimicrobial Activity MIC, MRSA b) was 1.1 µM, the MIC ([6]; Staphylococcus epidermidis, read-out: Antimicrobial Activity MIC, S. e. b) was 1.5 µM and the “CFU/Implant, *MRSA b” value [7] was 4.0 × 10^6 CFU/implant.

In the case of `CC[C@H](C)[C@H](NC(=O)[C@H](CCCCN)NC(=O)[C@H](CCCCN)NC(=O)[C@H](CC(C)C)NC(=O)[C@H](CC(C)C)NC(=O)[C@H](CCCCN)NC(=O)[C@H](CCSC)NC(=O)[C@H](Cc1c[nH]c2ccccc12)NC(=O)[C@H](CCCCN)NC(=O)CCN)C(=O)N[C@@H](CC(C)C)C(=O)N[C@@H](CCCCN)C(N)=O` [XI] (H-[βAla]KWMKLLKKILK-NH2; N-terminus assumed), the “Antimicrobial Activity MIC, MRSA a” value [1, 8] is reported as 5.7 µM, the “Antimicrobial Activity MIC, E. f. b” value [2, 9] is reported as 59.0 µM and the “Antimicrobial Activity MIC, MRSA 6271” value (MRSA 6271 (ATCC 43300); growth in 100-well microtiter plates, Bioscreen C, tested at least three times in duplicates) is reported as 11.3 µM. The “Antimicrobial Activity MIC, P. a. a” value [3, 8] was 7.0 µM, the “Antimicrobial Activity MIC, P. a. 5482” value ([4]; Bioscreen C, at least three times in duplicates) was 2.8 µM and the “Antimicrobial Activity MIC, MRSA b” value [5, 9] was 10.0 µM. For the same compound, the “Antimicrobial Activity MIC, S. e. b” value [6, 9] was 2.8 µM, the “Haemolytic Activity LC50” value (human erythrocytes) was 270 µM and the “Colony Forming Units (CFU)/Hole, P. a. 5482” value (P. aeruginosa 5482) was 2.0 × 10^5 CFU/hole. For the same compound, the “Antimicrobial Activity MIC, C. a.” value (Candida albicans) was 11.3 µM.

In the case of `C[C@@H]1[C@H](O)[C@@H](C)/C=C/C=C/C=C/C=C/C=C/C=C/C=C/[C@H](O[C@@H]2O[C@H](C)[C@@H](O)[C@H](N)[C@@H]2O)C[C@@H]2O[C@](O)(C[C@@H](O)C[C@@H](O)[C@H](O)CC[C@@H](O)C[C@@H](O)CC(=O)O[C@H]1C)C[C@H](O)[C@H]2C(=O)O` [Amphotericin B, amphotericin B], the “CFU/Implant, * C. tropicalis” value (C. tropicalis ATCC 750) is reported as 1.3 × 10^6 CFU/implant.
